Results on seven compounds are retold here after the NIST ThermoML archive (doi:10.1016/j.fluid.2013.06.007).

For series [1] the following is noted: 298.2 K; 101.33 kPa; Liquid; Vibrating tube method.
The nature of series [2]: refractive index (Na D-line) (dimensionless). Particulars: 298.2 K; 101.33 kPa; Liquid; Standard Abbe refractometry.

What is called mass density is mass per unit of volume. Usually refractive index stands for a measure of how strongly the sample bends light.

Each structure is given as a SMILES string. ± gives the expanded uncertainty stated by the source.

Regarding `CC(O)C(=O)O` (stereo not drawn) [2-hydroxypropanoic acid], in series [1], the mass density stood at 1199.91 ± 87 kg/m3. In addition, the refractive index in series [2] was determined as 1.4243 ± 0.003.

Consider `CCCCO` [butan-1-ol], for which, in series [1], the mass density is listed as 805.877 ± 0.63 kg/m3. In addition, the refractive index in series [2] is 1.3972 ± 0.0004.

As for `CCC(C)O` (stereo not drawn) [butan-2-ol], the mass density in series [1] worked out at 802.362 ± 0.63 kg/m3. Besides, the refractive index in series [2] is on record as 1.394 ± 0.0004.

As to `CCCCCCCO` [heptan-1-ol], the mass density in series [1] is recorded as 818.915 ± 0.63 kg/m3. The refractive index in series [2] is recorded as 1.4224 ± 0.0004.

On to `CCCCCCO` [hexan-1-ol], for which the mass density in series [1] is listed as 815.167 ± 0.83 kg/m3. Further, in series [2], the refractive index came to 1.416 ± 0.0005.

Regarding `CCCCCO` [pentan-1-ol], the mass density in series [1] came out at 811.288 ± 0.63 kg/m3. Also, the refractive index in series [2] is listed as 1.4078 ± 0.0004.

For `O` [water], the refractive index in series [2] worked out at 1.3325 ± 0.0004.
